Laboratory results as given in US6632921B1, “Seryl-lysyl-based peptide and peptidomimetic inhibitors of N-myristoyl transferase as anti-infective agents” (G. D Searle & Co, priority 1995, dated 2003).
pEC50, pIC50: −log10 of the molar value.

Tests used:
[1] = molecular target: T1, human NMT (Homo sapiens, UniProt P30419); assay: NMT enzyme inhibition assay (radiochemical HPLC end-point), human NMT; assay type: biochemical
T1 construct: made in house; host or cells: E. coli
T1 sequence (P30419 1-416 isoform P30419-2): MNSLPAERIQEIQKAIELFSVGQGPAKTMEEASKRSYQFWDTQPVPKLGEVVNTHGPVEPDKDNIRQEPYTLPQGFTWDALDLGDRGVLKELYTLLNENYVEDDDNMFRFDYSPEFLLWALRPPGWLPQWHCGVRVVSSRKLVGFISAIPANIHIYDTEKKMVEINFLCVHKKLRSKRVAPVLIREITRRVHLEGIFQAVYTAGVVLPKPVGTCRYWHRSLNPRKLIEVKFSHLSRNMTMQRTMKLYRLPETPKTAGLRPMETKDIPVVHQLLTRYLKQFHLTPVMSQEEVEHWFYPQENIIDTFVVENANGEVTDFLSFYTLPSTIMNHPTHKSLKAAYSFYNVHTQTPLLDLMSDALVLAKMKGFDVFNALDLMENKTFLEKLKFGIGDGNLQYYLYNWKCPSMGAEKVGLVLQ
Method: Recombinant Candida albicans and human NMTs were expressed and purified from E. coli using previously described protocols. [D. A. Towler et al, Proc. Natl. Acad. Sci. USA, 84, 2707-2712 (1987); R. C. Weigand et al, J. Biol. Chem., 267, 8591-8598 (1992); R. J. Duronio et al, Proc. Natl. Acad. Sci. USA, 89, 4129-4133 (1992)] The ability of compounds to inhibit Candida NMT enzymatic activity was assessed using a radiochemical HPLC end-point assay as described previously for Saccharomyces cerevisiae and human NMTs. [D. Towler et al, Proc. Natl. Acad. Sci. USA, 83, 2812-2816 (1986); W. J. Rocque et al, J. Biol. Chem., 268, 9964-9971 (1991)] The donor substrate [^3H]myristoyl-coenzyme A was enzymatically synthesized from [^3H]myristic acid (50 Ci/mmol, Amersham, Arlington Heights, Ill.) and coenzyme A (Fluka Chemical Corp., Ronkonkoma, N.Y.), and purified as described previously. [W. J. Rocque et al, J. Biol. Chem., 268, 9964-9971 (1991)] The peptide acceptor substrate GNAASARR-NH2 was prepared by solid-phase peptide synthesis using the t-Boc amino acid methodology, followed by HF treatment and reverse-phase HPLC purification. Inhibitor stock solutions were prepared at 22 mM in DMSO; the final concentration of DMSO in each assay was 0.5% (v/v). […] The reaction was quenched after 10 minutes at 24° C. by the addition of ice-cold MeOH, and the reaction products were separated and measured using C4 reverse-phase HPLC (Vydac 214TP10415; Separations Group, Hesperia, Calif.) and in-line scintillation counting using a Radiomatic A250 (Packard Instruments, Downers Grove, Ill.) and Ecolite(+) (ICN Biomedical, Costa Mesa, Calif.) as the scintillant. Selectivity was determined by calculating the ratio of the IC50 against human NMT to the IC50 against C. albicans NMT.

[2] = system: C.trop.; assay: Antifungal susceptibility testing, pH 5.4 assay, different strains of Candida; assay type: cell-based, C.tropicalis; settings: Candida tropicalis, 24 hr
[3] = system: C.glab.; assay: as above; assay type: cell-based, C.glabrata; settings: Nakaseomyces glabratus, 24 hr
[4] = system: C.alb (516); assay: as above; assay type: cell-based; settings: Candida albicans, 24 hr
Method: 1) (Assay at DH 5.4/30° C. Incubation/YNB Media).
Antifungal assays were carried out initially by a modification of the method published by Jones, et. al; (1), and communicated to Searle by Dr. Kobayashi, Washington University. [R. N. Jones et al, Manual of Clinical Microbiology, 4th ed., (1985)]
The antifungal susceptibility testing consists of a microdilution broth procedure performed in 96 well microtiter plates (Costar, cat#3799). Briefly, test compounds from a 20 mM stock solution in DMSO are diluted into sterile, deionized water (final DMSO concentration not exceeding 1%), to yield 2× the desired concentration (100 uM, 10 uM and 1 uM for an initial screen, or a selected concentration range in serial 2 fold dilutions for EC50 determination). One hundred microliters (100 ul) of each concentration is dispensed into triplicate wells of a 96 well microtiter plate. Appropriate dilutions of a suspension of C.albicans (1×10^6 cells/ml) in 2× YNB is distributed into each of the wells, including growth control wells containing no test compound as well as control wells with 0.5% DMSO. Amphotericin B at 0.05, 1 and 5 ug/ml is included in each assay plate as a positive control. The plates are incubated at 30° C. and cell growth is scored by reading the absorbance at 590 nm on an Elisa plate reader(Dynatech, MR.5000).

Row | SMILES | pIC50 ([1]; Comparator Compound A table) | pEC50 [2] | pEC50 [3] | pEC50 [4] | pIC50 ([1]; Table V)
1 | Cc1nccn1CCCCc1ccc(CC(=O)N[C@H](CO)C(=O)N[C@H](CCCCN)C(=O)N[C@H](CC2CCCCC2)C(=O)O)cc1 [Comparator Compound A, D-Alanine, 3-cyclohexyl-N-[N^2-[N-[[4-[4-(2-methyl-1H-imidazol-1-yl)butyl]phenyl]acetyl]-D-seryl]-D-lysyl]-, bis-trifluoroacetate] | < 3.00 | < 3.60 | < 3.60 | < 3.60 | –
2 | Cc1nccn1CCCCc1ccc(CC(=O)N[C@@H](CO)C(=O)N[C@@H](CCCCN)C(=O)N[C@@H](CC2CCCCC2)C(=O)O)cc1 [Example 2, L-Alanine, 3-cyclohexyl-N-[N^2-[N-[[4-[4-(2-Methyl-1H-imidazol-1-yl)butyl]phenyl]acetyl]-L-seryl]-L-lysyl]-, bis-trifluoroacetate] | – | < 3.60 | < 3.60 | < 3.60 | 3.09
